# [PEt] = P-ethoxy (ethyl phosphotriester) internucleoside linkage
# Test: Adverse events in study 2003-0578 (NCI CTCAE grading)
substance,measurement,setting,value
"BP1001: liposome-incorporated P-ethoxy antisense oligodeoxynucleotide (5′-ATATTTGGCGATGGCTTC-3′, SEQ ID NO: 1) specific to grb2 mRNA, in neutral DOPC liposomes (DNA, all [PEt], methylation of C not given here; incorporated in neutral DOPC liposomes)","Hypovolemia ≥Grade 3, number of patients",monotherapy 10 mg/m^2 (n = 6),0
same,"Hypoxia ≥Grade 3, number of patients",monotherapy 10 mg/m^2 (n = 6),1
same,"Investigations ≥Grade 3, number of patients",monotherapy 10 mg/m^2 (n = 6),0
same,"Leukocytosis ≥Grade 3, number of patients",monotherapy 10 mg/m^2 (n = 6),2
same,"Metabolism and nutritional disorders ≥Grade 3, number of patients",monotherapy 10 mg/m^2 (n = 6),3
same,"Multi-organ failure ≥Grade 3, number of patients",monotherapy 10 mg/m^2 (n = 6),1
same,"Neoplasms benign, malignant, and unspecified (incl. cysts and polyps) ≥Grade 3, number of patients",monotherapy 10 mg/m^2 (n = 6),1
same,"Patients with AEs ≥Grade 3, number of patients",monotherapy 10 mg/m^2 (n = 6),4
same,"Penile Pain ≥Grade 3, number of patients",monotherapy 10 mg/m^2 (n = 6),0
same,"Platelet count decreased ≥Grade 3, number of patients",monotherapy 10 mg/m^2 (n = 6),0
same,"Pneumonia ≥Grade 3, number of patients",monotherapy 10 mg/m^2 (n = 6),2
same,"Psychiatric disorders ≥Grade 3, number of patients",monotherapy 10 mg/m^2 (n = 6),0
same,"Renal and urinary disorders ≥Grade 3, number of patients",monotherapy 10 mg/m^2 (n = 6),0
same,"Reproductive system and breast disorders ≥Grade 3, number of patients",monotherapy 10 mg/m^2 (n = 6),0
same,"Respiratory distress ≥Grade 3, number of patients",monotherapy 10 mg/m^2 (n = 6),2
same,"Respiratory failure ≥Grade 3, number of patients",monotherapy 10 mg/m^2 (n = 6),1
same,"Respiratory, thoracic, and mediastinal disorders ≥Grade 3, number of patients",monotherapy 10 mg/m^2 (n = 6),3
same,"Tumor lysis syndrome ≥Grade 3, number of patients",monotherapy 10 mg/m^2 (n = 6),0
same,"Vascular disorders ≥Grade 3, number of patients",monotherapy 10 mg/m^2 (n = 6),0
same,"AML progression, number of patients",monotherapy 20 mg/m^2 (n = 3),1
same,"Abdominal Pain ≥Grade 3, number of patients",monotherapy 20 mg/m^2 (n = 3),0
same,"Acidosis ≥Grade 3, number of patients",monotherapy 20 mg/m^2 (n = 3),0
same,"Acute kidney injury ≥Grade 3, number of patients",monotherapy 20 mg/m^2 (n = 3),0
same,"Asthenia ≥Grade 3, number of patients",monotherapy 20 mg/m^2 (n = 3),0
same,"Back Pain ≥Grade 3, number of patients",monotherapy 20 mg/m^2 (n = 3),0
same,"Blood and lymphatic system disorders ≥Grade 3, number of patients",monotherapy 20 mg/m^2 (n = 3),1
same,"Cardiac disorders ≥Grade 3, number of patients",monotherapy 20 mg/m^2 (n = 3),0
same,"Cataract ≥Grade 3, number of patients",monotherapy 20 mg/m^2 (n = 3),0
same,"Dyspnea ≥Grade 3, number of patients",monotherapy 20 mg/m^2 (n = 3),0
same,"Extremity Lower Edema ≥Grade 3, number of patients",monotherapy 20 mg/m^2 (n = 3),0
same,"Eye disorders ≥Grade 3, number of patients",monotherapy 20 mg/m^2 (n = 3),0
same,"Febrile neutropenia ≥Grade 3, number of patients",monotherapy 20 mg/m^2 (n = 3),0
same,"Gastrointestinal disorders ≥Grade 3, number of patients",monotherapy 20 mg/m^2 (n = 3),0
same,"General disorders and administration site conditions ≥Grade 3, number of patients",monotherapy 20 mg/m^2 (n = 3),0
same,"Hallucinations ≥Grade 3, number of patients",monotherapy 20 mg/m^2 (n = 3),0
same,"Heart failure ≥Grade 3, number of patients",monotherapy 20 mg/m^2 (n = 3),0
same,"Hepatic failure ≥Grade 3, number of patients",monotherapy 20 mg/m^2 (n = 3),0
same,"Hepatobiliary disorders ≥Grade 3, number of patients",monotherapy 20 mg/m^2 (n = 3),0
same,"Hypocalcemia ≥Grade 3, number of patients",monotherapy 20 mg/m^2 (n = 3),0
same,"Hypoglycemia ≥Grade 3, number of patients",monotherapy 20 mg/m^2 (n = 3),0
same,"Hypokalemia ≥Grade 3, number of patients",monotherapy 20 mg/m^2 (n = 3),0
same,"Hyponatremia ≥Grade 3, number of patients",monotherapy 20 mg/m^2 (n = 3),0
same,"Hypotension ≥Grade 3, number of patients",monotherapy 20 mg/m^2 (n = 3),0
same,"Hypovolemia ≥Grade 3, number of patients",monotherapy 20 mg/m^2 (n = 3),0
same,"Hypoxia ≥Grade 3, number of patients",monotherapy 20 mg/m^2 (n = 3),0
same,"Investigations ≥Grade 3, number of patients",monotherapy 20 mg/m^2 (n = 3),0
same,"Leukocytosis ≥Grade 3, number of patients",monotherapy 20 mg/m^2 (n = 3),1
same,"Metabolism and nutritional disorders ≥Grade 3, number of patients",monotherapy 20 mg/m^2 (n = 3),0
same,"Multi-organ failure ≥Grade 3, number of patients",monotherapy 20 mg/m^2 (n = 3),0
same,"Musculoskeletal and connective tissue disorders ≥Grade 3, number of patients",monotherapy 20 mg/m^2 (n = 3),0
same,"Neoplasms benign, malignant, and unspecified (incl. cysts and polyps) ≥Grade 3, number of patients",monotherapy 20 mg/m^2 (n = 3),0
same,"Patients with AEs ≥Grade 3, number of patients",monotherapy 20 mg/m^2 (n = 3),1
same,"Penile Pain ≥Grade 3, number of patients",monotherapy 20 mg/m^2 (n = 3),0
same,"Platelet count decreased ≥Grade 3, number of patients",monotherapy 20 mg/m^2 (n = 3),0
same,"Pneumonia ≥Grade 3, number of patients",monotherapy 20 mg/m^2 (n = 3),0
same,"Psychiatric disorders ≥Grade 3, number of patients",monotherapy 20 mg/m^2 (n = 3),0
same,"Renal and urinary disorders ≥Grade 3, number of patients",monotherapy 20 mg/m^2 (n = 3),0
same,"Reproductive system and breast disorders ≥Grade 3, number of patients",monotherapy 20 mg/m^2 (n = 3),0
same,"Respiratory distress ≥Grade 3, number of patients",monotherapy 20 mg/m^2 (n = 3),0
same,"Respiratory failure ≥Grade 3, number of patients",monotherapy 20 mg/m^2 (n = 3),0
same,"Respiratory, thoracic, and mediastinal disorders ≥Grade 3, number of patients",monotherapy 20 mg/m^2 (n = 3),0
same,"Tumor lysis syndrome ≥Grade 3, number of patients",monotherapy 20 mg/m^2 (n = 3),0
same,"Vascular disorders ≥Grade 3, number of patients",monotherapy 20 mg/m^2 (n = 3),0
same,"AML progression, number of patients",monotherapy 40 mg/m^2 (n = 3),3
same,"Abdominal Pain ≥Grade 3, number of patients",monotherapy 40 mg/m^2 (n = 3),0
same,"Acidosis ≥Grade 3, number of patients",monotherapy 40 mg/m^2 (n = 3),0
same,"Acute kidney injury ≥Grade 3, number of patients",monotherapy 40 mg/m^2 (n = 3),1
same,"Asthenia ≥Grade 3, number of patients",monotherapy 40 mg/m^2 (n = 3),0
same,"Back Pain ≥Grade 3, number of patients",monotherapy 40 mg/m^2 (n = 3),0
same,"Blood and lymphatic system disorders ≥Grade 3, number of patients",monotherapy 40 mg/m^2 (n = 3),1
same,"Cardiac disorders ≥Grade 3, number of patients",monotherapy 40 mg/m^2 (n = 3),0
same,"Cataract ≥Grade 3, number of patients",monotherapy 40 mg/m^2 (n = 3),0
same,"Dyspnea ≥Grade 3, number of patients",monotherapy 40 mg/m^2 (n = 3),1
same,"Extremity Lower Edema ≥Grade 3, number of patients",monotherapy 40 mg/m^2 (n = 3),0
same,"Eye disorders ≥Grade 3, number of patients",monotherapy 40 mg/m^2 (n = 3),0
same,"Febrile neutropenia ≥Grade 3, number of patients",monotherapy 40 mg/m^2 (n = 3),0
same,"Gastrointestinal disorders ≥Grade 3, number of patients",monotherapy 40 mg/m^2 (n = 3),0
same,"General disorders and administration site conditions ≥Grade 3, number of patients",monotherapy 40 mg/m^2 (n = 3),0
same,"Hallucinations ≥Grade 3, number of patients",monotherapy 40 mg/m^2 (n = 3),0
same,"Heart failure ≥Grade 3, number of patients",monotherapy 40 mg/m^2 (n = 3),0
same,"Hepatic failure ≥Grade 3, number of patients",monotherapy 40 mg/m^2 (n = 3),0
same,"Hepatobiliary disorders ≥Grade 3, number of patients",monotherapy 40 mg/m^2 (n = 3),0
same,"Hypocalcemia ≥Grade 3, number of patients",monotherapy 40 mg/m^2 (n = 3),0
same,"Hypoglycemia ≥Grade 3, number of patients",monotherapy 40 mg/m^2 (n = 3),0
same,"Hypokalemia ≥Grade 3, number of patients",monotherapy 40 mg/m^2 (n = 3),1
same,"Hyponatremia ≥Grade 3, number of patients",monotherapy 40 mg/m^2 (n = 3),0
same,"Hypotension ≥Grade 3, number of patients",monotherapy 40 mg/m^2 (n = 3),0
same,"Hypovolemia ≥Grade 3, number of patients",monotherapy 40 mg/m^2 (n = 3),0
same,"Hypoxia ≥Grade 3, number of patients",monotherapy 40 mg/m^2 (n = 3),0
same,"Investigations ≥Grade 3, number of patients",monotherapy 40 mg/m^2 (n = 3),0
same,"Leukocytosis ≥Grade 3, number of patients",monotherapy 40 mg/m^2 (n = 3),1
same,"Metabolism and nutritional disorders ≥Grade 3, number of patients",monotherapy 40 mg/m^2 (n = 3),1
same,"Multi-organ failure ≥Grade 3, number of patients",monotherapy 40 mg/m^2 (n = 3),0
same,"Musculoskeletal and connective tissue disorders ≥Grade 3, number of patients",monotherapy 40 mg/m^2 (n = 3),0
same,"Neoplasms benign, malignant, and unspecified (incl. cysts and polyps) ≥Grade 3, number of patients",monotherapy 40 mg/m^2 (n = 3),0
same,"Patients with AEs ≥Grade 3, number of patients",monotherapy 40 mg/m^2 (n = 3),3
same,"Penile Pain ≥Grade 3, number of patients",monotherapy 40 mg/m^2 (n = 3),0
same,"Platelet count decreased ≥Grade 3, number of patients",monotherapy 40 mg/m^2 (n = 3),0
same,"Pneumonia ≥Grade 3, number of patients",monotherapy 40 mg/m^2 (n = 3),0
same,"Psychiatric disorders ≥Grade 3, number of patients",monotherapy 40 mg/m^2 (n = 3),0
same,"Renal and urinary disorders ≥Grade 3, number of patients",monotherapy 40 mg/m^2 (n = 3),1
same,"Reproductive system and breast disorders ≥Grade 3, number of patients",monotherapy 40 mg/m^2 (n = 3),0
same,"Respiratory distress ≥Grade 3, number of patients",monotherapy 40 mg/m^2 (n = 3),0
same,"Respiratory failure ≥Grade 3, number of patients",monotherapy 40 mg/m^2 (n = 3),0
same,"Respiratory, thoracic, and mediastinal disorders ≥Grade 3, number of patients",monotherapy 40 mg/m^2 (n = 3),1
same,"Tumor lysis syndrome ≥Grade 3, number of patients",monotherapy 40 mg/m^2 (n = 3),0
same,"Vascular disorders ≥Grade 3, number of patients",monotherapy 40 mg/m^2 (n = 3),0
same,"AML progression, number of patients",monotherapy 60 mg/m^2 (n = 3),3
same,"Abdominal Pain ≥Grade 3, number of patients",monotherapy 60 mg/m^2 (n = 3),0
same,"Acidosis ≥Grade 3, number of patients",monotherapy 60 mg/m^2 (n = 3),0
same,"Acute kidney injury ≥Grade 3, number of patients",monotherapy 60 mg/m^2 (n = 3),0
same,"Asthenia ≥Grade 3, number of patients",monotherapy 60 mg/m^2 (n = 3),0
same,"Back Pain ≥Grade 3, number of patients",monotherapy 60 mg/m^2 (n = 3),0

# From patent US20200032271A1, “COMBINATION THERAPY WITH LIPOSOMAL ANTISENSE OLIGONUCLEOTIDES” (Bio-Path Holdings, Inc., priority 2016, published 2020)
